According to PubChem BioAssay AID1259407 (Chemical Carcinogenesis Research Information System (CCRIS), 2018):
Calls of active or inactive are those of the source. No rule for the calls is given here.

Tested on: CCRIS mutagenicity, Ames/micronucleus/aberration tests
Experiment: CCRIS mutagenicity studies
[1] = Test System: AMES SALMONELLA TYPHIMURIUM, Strain/Indicator: TA98, Metabolic Activation: NONE, Method: STANDARD PLATE
[2] = Test System: AMES SALMONELLA TYPHIMURIUM, Strain/Indicator: TA100, Metabolic Activation: NONE, Method: STANDARD PLATE
[3] = Test System: AMES SALMONELLA TYPHIMURIUM, Strain/Indicator: TA98, Metabolic Activation: RAT, LIVER, S-9, AROCLOR 1254, Method: STANDARD PLATE
[4] = Test System: AMES SALMONELLA TYPHIMURIUM, Strain/Indicator: TA100, Metabolic Activation: RAT, LIVER, S-9, AROCLOR 1254, Method: STANDARD PLATE

Structure (SMILES): O=S1(=O)c2cccc3ccc4c5ccccc5cc1c4c23
- mutagenic call [1]: active; positive
- mutagenic call (Test System: AMES SALMONELLA TYPHIMURIUM, Strain/Indicator: TA98, Metabolic Activation: RAT, LIVER, S-9, AROCLOR 1254 (10%), Method: STANDARD PLATE): active; positive
- mutagenic call [2]: active; positive
- mutagenic call (Test System: AMES SALMONELLA TYPHIMURIUM, Strain/Indicator: TA100, Metabolic Activation: RAT, LIVER, S-9, AROCLOR 1254 (10%), Method: STANDARD PLATE): active; positive

Structure (SMILES): CCN(CC)c1ccc(N=Nc2c(Cl)cc([N+](=O)[O-])cc2Cl)cc1
- mutagenic call [1]: active; positive
- mutagenic call [3]: active; positive
- mutagenic call [2]: inactive; negative
- mutagenic call [4]: inactive; negative
- mutagenic call (Test System: AMES SALMONELLA TYPHIMURIUM, Strain/Indicator: TA1535, Metabolic Activation: NONE, Method: STANDARD PLATE): inactive; negative
- mutagenic call (Test System: AMES SALMONELLA TYPHIMURIUM, Strain/Indicator: TA1535, Metabolic Activation: RAT, LIVER, S-9, AROCLOR 1254, Method: STANDARD PLATE): inactive; negative
- mutagenic call (Test System: AMES SALMONELLA TYPHIMURIUM, Strain/Indicator: TA1537, Metabolic Activation: NONE, Method: STANDARD PLATE): inactive; negative
- mutagenic call (Test System: AMES SALMONELLA TYPHIMURIUM, Strain/Indicator: TA1537, Metabolic Activation: RAT, LIVER, S-9, AROCLOR 1254, Method: STANDARD PLATE): inactive; negative
- mutagenic call (Test System: CHINESE HAMSTER OVARY, Strain/Indicator: CHO (HGPRT)/6-THIOGUANINE, Metabolic Activation: NONE): inactive; negative
- mutagenic call (Test System: CHINESE HAMSTER OVARY, Strain/Indicator: CHO (HGPRT)/6-THIOGUANINE, Metabolic Activation: RAT, LIVER, S-9, AROCLOR 1254): inactive; negative
- mutagenic call (Test System: UDS RAT HEPATOCYTES, Strain/Indicator: THY INCORP, Metabolic Activation: NONE, Method: AUTORADIOGRAPHY): inactive; negative

Structure (SMILES): CC1(C)C[C@@H]2[C@@]34C[C@]3(C(C=O)=C[C@]2(O)C1)[C@@H](O)OC4=O
- mutagenic call [1]: active; positive
- mutagenic call [2]: active; positive
- mutagenic call (Test System: AMES SALMONELLA TYPHIMURIUM, Strain/Indicator: TA2637, Metabolic Activation: NONE, Method: STANDARD PLATE): active; positive

Structure (SMILES): COc1cc2ccnc3c2c(c1OC)-c1ccccc1C3=O
- mutagenic call (Test System: AMES SALMONELLA TYPHIMURIUM, Strain/Indicator: TA100, Metabolic Activation: RAT, LIVER, S-9, PHENOBARBITAL AND BETA-NAPHTHOFLAVONE, Method: PREINCUBATION): active; positive

Structure (SMILES): CC\C=C/C=C\C=C/C=C\C=C/C=C\OCC(O)CO (configuration not stated)
- mutagenic call (Test System: AMES SALMONELLA TYPHIMURIUM, Strain/Indicator: TA100, Metabolic Activation: NONE, Method: PREINCUBATION): active; positive

Structure (SMILES): O=[N+]([O-])c1ccc2c3cccc4cccc(c5c([N+](=O)[O-])ccc1c25)c43
- mutagenic call (Test System: AMES SALMONELLA TYPHIMURIUM, Strain/Indicator: TA98(1,8-DNP6), Metabolic Activation: NONE, Method: STANDARD PLATE): active; positive
- mutagenic call (Test System: AMES SALMONELLA TYPHIMURIUM, Strain/Indicator: TA98(NR), Metabolic Activation: NONE, Method: STANDARD PLATE): active; positive
- mutagenic call [1]: active; positive
- mutagenic call (Test System: AMES SALMONELLA TYPHIMURIUM, Strain/Indicator: TA98, Metabolic Activation: NONE, Method: STANDARD PLATE (ANAEROBIC)): active; positive
- mutagenic call [3]: active; positive
- mutagenic call [2]: inactive; negative
- mutagenic call [4]: active; positive
